Assay: Hygroscopicity: increase of water content on storage at 25° C. under relative humidity of 60%
Assay type: physicochemical
Details: six months
Description: Thus, for example, water content of crystalline form H1 produced according to the present invention is increased by 0.2% in six months at the temperature of 25° C. under relative humidity of 60%. Crystalline form H1 obtained according to the present invention typically has the water content of 2.5-8% by weight of the product obtained, more preferably 3-7% by weight, still more preferably 4-6% by weight as determined by Karl fisher method.

| increase of water content on storage [%] | Compound |
| --- | --- |
| 2.37 | O=C1Nc2ccc(Cl)cc2[C@@](C#CC2CC2)(C(F)(F)F)O1 [crystalline form H1 disclosed in WO 2006/018853] [(4S)-6-chloro-4-(cyclopropylethynyl)-1,4-dihydro-4-(trifluoromethyl)-2H-3,1-benzoxazin-2-one] |
| 0.2 | O=C1Nc2ccc(Cl)cc2[C@@](C#CC2CC2)(C(F)(F)F)O1 [crystalline form H1 produced according to the present invent] [(4S)-6-chloro-4-(cyclopropylethynyl)-1,4-dihydro-4-(trifluoromethyl)-2H-3,1-benzoxazin-2-one] |
